In US12691065B2, “Liposome formulations for treatment of cancers and drug resistance of cancers” (NanoTech Pharma Inc., priority 2020, dated 2026):

Experiments:
[1] = In-vivo pharmacokinetic study, intravenous; conditions: free drug solution, CD-1 mice
Text: After intravenous administration, blood was collected at multiple time points for a week by cardiac puncture (3 mice per time point) and placed into EDTA coated micro containers. The samples were centrifuged to separate plasma, and plasma was transferred to another tube.

MDA-MB-231(R) cells = test: MTT cytotoxicity of DOX on MDA-MB-231 versus MDA-MB-231(R); assay type: cell-based, human; conditions: 48-hour DOX treatment, each dose level
Text: Doxorubicin resistant cell lines of MDA-MB-231 and MCF-7 were developed in house. The resistant variants were generated by repeatedly culturing MDA-MB-231 and MCF-7 cells in the presence of 0.2 μmol/L DOX. These cells that proliferated well in the presence of doxorubicin after several passages qualified as DOX-resistant MDA-MB-231 and MCF-7 cells, which were named as MDA-MB-231(R) and MCF-7(R) cell lines, respectively. Both MDA-MB-231(R) and MCF-7(R) cell lines were characterized against non-DOX treated MDA-MB-231 and MCF-7 cell lines.
The cell seeded plate was incubated for 24 hours at 37° C. and 5% CO2 in a standard cell culture incubator before drug treatment. […] After another 24 hours of incubation, cell viability was assessed by the MTT assay following the manufacture's protocols. Relative percent survival was determined by subtracting absorbance values obtained by media-only wells from drug treated wells and then normalizing to the no-drug control wells (cell only control). The fraction of cells affected (Fa), or cell growth inhibition (%) at each drug concentration was subsequently calculated for each well. The effect of drug combinations was then calculated and processed by a software CompuSyn for drug synergy analysis. The program employs the median-effect analysis algorithm, which produces the Combination Index (CI) value as a quantitative indicator of the degree of synergy. […]

half-life (T1/2) [1]: 30 min
SMILES: COc1cccc2c1C(=O)c1c(O)c3c(c(O)c1C2=O)C[C@@](O)(C(=O)CO)C[C@@H]3O[C@H]1C[C@H](N)[C@H](O)[C@H](C)O1.Cl [DOX, Doxorubicin hydrochloride]
cell viability of MDA-MB-231(R) compared to MDA-MB-231 (MDA-MB-231(R) cells): markedly greater
